Laboratory results taken from PubChem BioAssay AID248 (DTP/NCI, 2004).
“And” between values parts separate entries of the source, which are not always exact repeats. Equal entries are not always repeated. Inconclusive results and toxic doses are left out. No stated cut-off is given here; in the data, active means T/C of 150% or more; inactive means T/C below 125%.

System: L1210 leukemia ip in BDF1 mice, survival T/C
Experiment: NCI In Vivo Anticancer Drug Screen. Data for tumor model L1210 Leukemia (intraperitoneal) in B6D2F1 (BDF1) mice
Settings: endpoint: mean survival time, higher = longer survival
How it was run: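 Transplantable tumor model; survival measured in treated vs vehicle control mice. Value = treated/control.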

[1] = dose: 25.0 mg/kg/injection, schedule: Q01DX009 (ip), vehicle: saline with Tween-80
[2] = dose: 50.0 mg/kg/injection, schedule: Q01DX009 (ip), vehicle: saline with Tween-80
[3] = dose: 100.0 mg/kg/injection, schedule: Q04DX003 (ip), vehicle: saline with Tween-80
[4] = dose: 50.0 mg/kg/injection, schedule: Q01DX001 (ip), vehicle: saline
[5] = dose: 100.0 mg/kg/injection, schedule: Q01DX001 (ip), vehicle: saline
[6] = dose: 200.0 mg/kg/injection, schedule: Q01DX001 (ip), vehicle: saline
[7] = dose: 100.0 mg/kg/injection, schedule: Q01DX009 (ip), vehicle: Klucel (hydroxypropylcellulose) (HPC)
[8] = dose: 100.0 mg/kg/injection, schedule: Q04DX003 (ip), vehicle: Klucel (hydroxypropylcellulose) (HPC)
[9] = dose: 200.0 mg/kg/injection, schedule: Q01DX009 (ip), vehicle: Klucel (hydroxypropylcellulose) (HPC)
[10] = dose: 200.0 mg/kg/injection, schedule: Q04DX003 (ip), vehicle: Klucel (hydroxypropylcellulose) (HPC)
[11] = dose: 400.0 mg/kg/injection, schedule: Q01DX009 (ip), vehicle: Klucel (hydroxypropylcellulose) (HPC)
[12] = dose: 400.0 mg/kg/injection, schedule: Q04DX003 (ip), vehicle: Klucel (hydroxypropylcellulose) (HPC)
[13] = dose: 25.0 mg/kg/injection, schedule: Q04DX003 (ip), vehicle: Klucel (hydroxypropylcellulose) (HPC)
[14] = dose: 50.0 mg/kg/injection, schedule: Q04DX003 (ip), vehicle: Klucel (hydroxypropylcellulose) (HPC)
[15] = dose: 100.0 mg/kg/injection, schedule: Q01DX009 (ip), vehicle: saline with Tween-80
[16] = dose: 200.0 mg/kg/injection, schedule: Q01DX009 (ip), vehicle: saline with Tween-80
[17] = dose: 400.0 mg/kg/injection, schedule: Q01DX009 (ip), vehicle: saline with Tween-80
[18] = dose: 200.0 mg/kg/injection, schedule: Q04DX003 (ip), vehicle: saline with Tween-80
[19] = dose: 400.0 mg/kg/injection, schedule: Q04DX003 (ip), vehicle: saline with Tween-80

Measured: T/C

CN(C)Cc1cc(O)c(CN(C)C)cc1O
inactive: [1] 110 % of control | dose: 25.0 mg/kg/injection, schedule: Q04DX003 (ip), vehicle: saline with Tween-80 88 % of control | [2] 103 % of control | dose: 50.0 mg/kg/injection, schedule: Q04DX003 (ip), vehicle: saline with Tween-80 93 % of control | [3] 96 % of control

CCOP(=S)(S)OCC.[Ni]
inactive: [4] 93 % of control | [5] 102 % of control | [6] 100 % of control

CSc1ncc(CO)c(N)n1
inactive: dose: 50.0 mg/kg/injection, schedule: Q01DX001 (ip), vehicle: carboxymethylcellulose (CMC) 111 % of control | dose: 100.0 mg/kg/injection, schedule: Q01DX001 (ip), vehicle: carboxymethylcellulose (CMC) 98 % of control | dose: 200.0 mg/kg/injection, schedule: Q01DX001 (ip), vehicle: carboxymethylcellulose (CMC) 102 % of control | dose: 400.0 mg/kg/injection, schedule: Q01DX001 (ip), vehicle: carboxymethylcellulose (CMC) 111 % of control

NC(=S)N/N=C/c1cc(Cl)cc(Cl)c1
inactive: dose: 100.0 mg/kg/injection, schedule: Q01DX001 (ip), vehicle: other 96 % of control | dose: 200.0 mg/kg/injection, schedule: Q01DX001 (ip), vehicle: other 102 % of control | dose: 400.0 mg/kg/injection, schedule: Q01DX001 (ip), vehicle: other 106 % of control

COCc1cc(C(C)(C)C)c(O)c(C(C)(C)C)c1
inactive: [7] 94 % of control | [8] 98 % of control | [9] 89 % of control | [10] 96 % of control | [11] 89 % of control | [12] 88 % of control

O=C(NC(=S)Nc1ccc(Cl)cc1C(=O)c1ccccc1)c1ccc(Cl)cc1Cl
inactive: [7] 93 % of control | [9] 96 % of control | [11] 94 % of control

OC(CNCCc1ccccc1)COc1cccc2ccccc12 (stereo unspecified)
inactive: [13] 97 % of control | [14] 95 % of control | [8] 95 % of control

Nc1cc(Cl)cc2cc(Br)cnc12
inactive: [8] 101 % of control | [10] 98 % of control | [12] 95 % of control

NC(=S)N/N=C(\c1ccccc1)c1ccccn1
inactive: dose: 12.5 mg/kg/injection, schedule: Q01DX009 (ip), vehicle: gum acacia 101 % of control | dose: 25.0 mg/kg/injection, schedule: Q01DX001 (ip), vehicle: gum acacia 100 % of control | dose: 25.0 mg/kg/injection, schedule: Q01DX009 (ip), vehicle: gum acacia 95 % of control | dose: 25.0 mg/kg/injection, schedule: Q04DX003 (ip), vehicle: gum acacia 105 % of control | dose: 50.0 mg/kg/injection, schedule: Q01DX001 (ip), vehicle: gum acacia 106 % of control | dose: 50.0 mg/kg/injection, schedule: Q01DX009 (ip), vehicle: gum acacia 93 % of control | dose: 50.0 mg/kg/injection, schedule: Q04DX003 (ip), vehicle: gum acacia 100 % of control | dose: 100.0 mg/kg/injection, schedule: Q01DX001 (ip), vehicle: gum acacia 95 % of control

Cc1cc2nc(C)c(=O)[nH]c2cc1C
inactive: [7] 95 % of control | [8] 96 % of control | [9] 98 % of control | [10] 92 % of control | [11] 91 % of control | [12] 92 % of control

C=CCCCCCCCCC(=O)NCC1CCCCO1 (stereo unspecified)
inactive: [15] 94 % of control | [16] 97 % of control | [17] 101 % of control

CC(C)C1CCC2(CC1)CCN(CCCN(C)C)CC2
inactive: [4] 93 % of control | [5] 113 % of control

COC(=O)CCC(=O)Nc1ccccc1C(C)=O
inactive: [3] 104 % of control | [18] 93 % of control | [19] 93 % of control

CC1(C)COC(C2CC(=O)c3ccccc3C2)=N1 (stereo unspecified)
inactive: [2] 94 % of control | dose: 50.0 mg/kg/injection, schedule: Q04DX003 (ip), vehicle: saline 97 % of control | [15] 107 % of control | dose: 100.0 mg/kg/injection, schedule: Q04DX003 (ip), vehicle: saline 92 % of control | [16] 100 % of control | dose: 200.0 mg/kg/injection, schedule: Q04DX003 (ip), vehicle: saline 99 % of control | [17] 107 % of control | dose: 400.0 mg/kg/injection, schedule: Q04DX003 (ip), vehicle: saline 91 % of control

N=C(N)SCCN
inactive: [5] 97 % of control | dose: 100.0 mg/kg/injection, schedule: Q01DX009 (ip), vehicle: saline 103 % of control | [6] 90 % of control | dose: 200.0 mg/kg/injection, schedule: Q01DX009 (ip), vehicle: saline 111 % of control | dose: 400.0 mg/kg/injection, schedule: Q01DX001 (ip), vehicle: saline 118 % of control

CCCC(C)(COC(N)=O)COC(N)=O
inactive: [15] 93 % of control | [16] 90 % of control | [17] 109 % of control

CCCCCC(C)SC#N (stereo unspecified)
inactive: [1] 107 % of control | [2] 102 % of control | [15] 88 % of control

Cc1cc(OC(=O)c2ccc(N)cc2)ccc1C1=NCC(C)S1 (stereo unspecified)
inactive: dose: 25.0 mg/kg/injection, schedule: Q04DX002 (ip), vehicle: DMSO 89 % of control | dose: 50.0 mg/kg/injection, schedule: Q04DX002 (ip), vehicle: DMSO 92 % of control | dose: 100.0 mg/kg/injection, schedule: Q04DX002 (ip), vehicle: DMSO 100 % of control

Brc1cscc1C1=CCCc2ccccc21
inactive: [8] 106 % of control | [10] 98 % of control | [12] 101 % of control

CC(=O)c1c(O)c(C)c(O)c2c1OC1=CC(=O)C(C(C)=O)C(=O)C12C (stereo unspecified)
inactive: dose: 5.0 mg/kg/injection, schedule: Q01DX009 (ip), vehicle: gum acacia 103 % of control | dose: 10.0 mg/kg/injection, schedule: Q01DX009 (ip), vehicle: gum acacia 101 % of control | dose: 20.0 mg/kg/injection, schedule: Q01DX009 (ip), vehicle: gum acacia 103 % of control | dose: 40.0 mg/kg/injection, schedule: Q01DX009 (ip), vehicle: gum acacia 94 % of control | dose: 80.0 mg/kg/injection, schedule: Q01DX009 (ip), vehicle: gum acacia 86 % of control

O=C(CCCCC(=O)N/N=C\c1ccccc1O)N/N=C\c1ccccc1O
inactive: [3] 87 % of control | [18] 89 % of control | [19] 87 % of control

C[N+](C)(C)CC1(COC(=O)C(O)(c2ccccc2)c2ccccc2)CC1
inactive: dose: 12.0 mg/kg/injection, schedule: Q04DX003 (ip), vehicle: Klucel (hydroxypropylcellulose) (HPC) 97 % of control | dose: 25.0 mg/kg/injection, schedule: Q01DX001 (ip), vehicle: Klucel (hydroxypropylcellulose) (HPC) 93 % of control | [13] 105 % of control | dose: 50.0 mg/kg/injection, schedule: Q01DX001 (ip), vehicle: Klucel (hydroxypropylcellulose) (HPC) 100 % of control | [14] 95 % of control | dose: 100.0 mg/kg/injection, schedule: Q01DX001 (ip), vehicle: Klucel (hydroxypropylcellulose) (HPC) 96 % of control and 100 % of control
